In ChEMBL document CHEMBL2069275, “Phenolic compounds as antiangiogenic CMG2 inhibitors from Costa Rican endophytic fungi” (Bioorg Med Chem Lett, 2012):
Active and inactive are the calls of the source. No cut-off for these calls is given here.

Tests used:
[1] = test system: Anthrax toxin receptor 2 (Homo sapiens), P58335 [R40C]; assay: (§1) Inhibition of AF546-tagged CMG2 R40C mutant binding to AF488-tagged PA E733C mutant incubated for 1 to 3 hrs prior to AF488-tagged PA E733C addition measured after 3 to 4 hrs by FRET assay
[2] = Antiproliferative activity against human HMVEC at 156 uM after 24 to 72 hrs by Cyquant-based fluorimetry relative to control
[3] = Antiangiogenic activity against human HMVEC at 52 uM after 4 hrs by Diff-Quick staining relative to control; format: functional
[4] = Antiproliferative activity against human HMVEC at 52 uM after 24 to 72 hrs by Cyquant-based fluorimetry relative to control
[5] = Antiangiogenic activity against human HMVEC at 156 uM after 4 hrs by Diff-Quick staining relative to control; format: functional
Anthrax toxin receptor 2 = Anthrax toxin receptor 2 (Homo sapiens, UniProt P58335, R40C); assay: as §1
[6] = Antiproliferative activity against human HMVEC at 39 uM after 24 to 72 hrs by Cyquant-based fluorimetry relative to control
HMVEC [7] = assay: Antiangiogenic activity against human HMVEC at 39 uM after 4 hrs by Diff-Quick staining relative to control; format: functional
HMVEC [8] = assay: Antiangiogenic activity against human HMVEC at 117 uM after 4 hrs by Diff-Quick staining relative to control; format: functional
[9] = Antiproliferative activity against human HMVEC at 117 uM after 24 to 72 hrs by Cyquant-based fluorimetry relative to control

Sequence of Anthrax toxin receptor 2 (Homo sapiens), P58335 [R40C] (P58335 whole entry R40C): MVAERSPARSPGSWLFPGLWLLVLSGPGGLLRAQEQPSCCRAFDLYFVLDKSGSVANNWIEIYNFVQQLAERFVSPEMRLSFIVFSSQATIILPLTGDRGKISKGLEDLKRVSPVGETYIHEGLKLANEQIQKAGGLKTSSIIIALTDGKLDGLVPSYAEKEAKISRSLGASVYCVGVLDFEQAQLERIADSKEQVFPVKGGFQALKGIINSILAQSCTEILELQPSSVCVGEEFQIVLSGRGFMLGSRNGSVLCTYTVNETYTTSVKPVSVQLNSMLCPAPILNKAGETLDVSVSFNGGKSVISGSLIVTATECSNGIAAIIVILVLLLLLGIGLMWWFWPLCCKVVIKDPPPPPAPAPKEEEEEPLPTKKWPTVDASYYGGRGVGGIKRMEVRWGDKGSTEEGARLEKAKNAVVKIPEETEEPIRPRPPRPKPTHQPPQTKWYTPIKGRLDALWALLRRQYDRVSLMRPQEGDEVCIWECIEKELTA
Sequence of Anthrax toxin receptor 2 (P58335 whole entry R40C): as above

COc1cccc2c1c(OC)cc1cc(C)c(=O)oc12
inhibition [1]: inactive

Cc1cc2cc(O)cc(O)c2c(=O)o1
Activity [2]: Non-toxic | Activity [3]: 96% | Activity [4]: Non-toxic | Activity [5]: 93.1%

COc1cccc2c1c(O)cc1cc(C)c(=O)oc12
IC50 (Anthrax toxin receptor 2): 500 nM | Activity [6]: Toxic | Activity (HMVEC [7]): inactive | Activity (HMVEC [8]): inactive | Activity [9]: Toxic
